Results from BindingDB's records for patent US20240398793 (Celltaxis, 2024).

Target: T1, Leukotriene A-4 hydrolase (Homo sapiens, UniProt P09960)
T1 sequence (P09960 whole entry): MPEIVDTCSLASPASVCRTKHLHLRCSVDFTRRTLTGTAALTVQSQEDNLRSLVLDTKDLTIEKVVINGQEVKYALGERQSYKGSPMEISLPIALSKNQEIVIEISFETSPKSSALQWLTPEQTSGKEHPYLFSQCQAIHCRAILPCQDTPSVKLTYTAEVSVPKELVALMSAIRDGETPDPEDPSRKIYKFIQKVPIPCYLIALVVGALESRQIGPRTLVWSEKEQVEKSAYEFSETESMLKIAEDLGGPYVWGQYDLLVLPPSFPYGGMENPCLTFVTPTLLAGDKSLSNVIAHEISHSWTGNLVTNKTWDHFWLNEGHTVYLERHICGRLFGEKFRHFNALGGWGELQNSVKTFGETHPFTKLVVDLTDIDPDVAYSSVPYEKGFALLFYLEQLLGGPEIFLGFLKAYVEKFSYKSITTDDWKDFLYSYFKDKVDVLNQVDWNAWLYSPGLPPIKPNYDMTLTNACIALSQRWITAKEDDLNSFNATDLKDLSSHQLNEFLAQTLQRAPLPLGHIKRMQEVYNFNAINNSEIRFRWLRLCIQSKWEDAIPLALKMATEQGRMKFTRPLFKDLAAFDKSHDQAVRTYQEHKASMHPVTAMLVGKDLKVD
Assay: Homogenous Time Resolved Fluorescence Assay
From the text: The hydrolase-homogeneous time resolved fluorescence assay is a two-step assay that measures the hydrolysis of LTA4 to LTB4 by analyzing the amount of LTB4 produced. The first step involves the enzymatic conversion of LTA4 to LTB4 and the second step involves the quantification of the LTB4 formed with a homogeneous time resolved fluorescence assay.

Question: For `COc1cc(O)cc(CCc2cccc(O)c2)c1` [Batatasin III (4)], which IC50 is on record?
Answer: Its IC50 is 1.7 µM.

Question: With `CC(=O)Oc1ccc(/C=C/c2cc(OC(C)=O)cc(OC(C)=O)c2)cc1` [US20240398793, Compound 4] as the molecule, how does the IC50 read?
Answer: The IC50 was 38.6 µM.

Question: For `COc1cc(O)cc(/C=C/c2ccc(O)cc2)c1` [US20240398793, Compound 5], which IC50 is on record?
Answer: The IC50 was 3.9 µM.

Question: `COc1cc(O)cc(CCc2ccc(O)cc2)c1` [US20240398793, Compound 6] was tested. Which IC50 did it give?
Answer: The IC50 was 6.4 µM.

Question: `CCOc1cc(O)cc(CCc2ccc(O)cc2)c1` [US20240398793, Compound 7] was tested. Which IC50 did it give?
Answer: Its IC50 is 3.2 µM.

Question: How did the IC50 turn out when `COc1cc(O)cc(CCc2ccccc2O)c1` [US20240398793, Compound 9] was run?
Answer: The IC50 was 0.5 µM.

Question: With `O=C(Cc1ccc(O)cc1)c1ccc(O)cc1O` [US20240398793, Compound 10] as the molecule, how does the IC50 read?
Answer: The IC50 was 34.2 µM.

Question: How did the IC50 turn out when `O=c1c(-c2ccc(O)cc2)coc2cc(O)ccc12` [US20240398793, Compound 11] was run?
Answer: Its IC50 is 15 µM.

Question: With `O=c1c(-c2ccccc2)coc2cc(O)ccc12` [US20240398793, Compound 13] as the molecule, how does the IC50 read?
Answer: The IC50 was 48.2 µM.

Question: `Cc1ccc2c(=O)c(-c3ccc(O)cc3)coc2c1O` [US20240398793, Compound 15] was tested. Which IC50 did it give?
Answer: The IC50 was 1.2 µM.
